The text below walks through data of US12447153B2, “HER2 mutation inhibitors” (Array BioPharma Inc., priority 2021, dated 2025).

SMILES strings stand for the structures.

The target in one assay is EGFR (Homo sapiens (Human), UniProt P00533). Description: ErbB Enzyme Assay (HTRF KinEASE-TK), Assay 3. The assay is classed as biochemical. (In general: TR-FRET usually uses a lanthanide donor and a delayed reading to cut background.)
The target of the next assay is ErbB2 WT (Homo sapiens (Human), UniProt P04626). Description: ErbB Enzyme Assay (HTRF KinEASE-TK), Assay 2. The assay is classed as biochemical.
Chain of ErbB2 WT (P04626 23-1255): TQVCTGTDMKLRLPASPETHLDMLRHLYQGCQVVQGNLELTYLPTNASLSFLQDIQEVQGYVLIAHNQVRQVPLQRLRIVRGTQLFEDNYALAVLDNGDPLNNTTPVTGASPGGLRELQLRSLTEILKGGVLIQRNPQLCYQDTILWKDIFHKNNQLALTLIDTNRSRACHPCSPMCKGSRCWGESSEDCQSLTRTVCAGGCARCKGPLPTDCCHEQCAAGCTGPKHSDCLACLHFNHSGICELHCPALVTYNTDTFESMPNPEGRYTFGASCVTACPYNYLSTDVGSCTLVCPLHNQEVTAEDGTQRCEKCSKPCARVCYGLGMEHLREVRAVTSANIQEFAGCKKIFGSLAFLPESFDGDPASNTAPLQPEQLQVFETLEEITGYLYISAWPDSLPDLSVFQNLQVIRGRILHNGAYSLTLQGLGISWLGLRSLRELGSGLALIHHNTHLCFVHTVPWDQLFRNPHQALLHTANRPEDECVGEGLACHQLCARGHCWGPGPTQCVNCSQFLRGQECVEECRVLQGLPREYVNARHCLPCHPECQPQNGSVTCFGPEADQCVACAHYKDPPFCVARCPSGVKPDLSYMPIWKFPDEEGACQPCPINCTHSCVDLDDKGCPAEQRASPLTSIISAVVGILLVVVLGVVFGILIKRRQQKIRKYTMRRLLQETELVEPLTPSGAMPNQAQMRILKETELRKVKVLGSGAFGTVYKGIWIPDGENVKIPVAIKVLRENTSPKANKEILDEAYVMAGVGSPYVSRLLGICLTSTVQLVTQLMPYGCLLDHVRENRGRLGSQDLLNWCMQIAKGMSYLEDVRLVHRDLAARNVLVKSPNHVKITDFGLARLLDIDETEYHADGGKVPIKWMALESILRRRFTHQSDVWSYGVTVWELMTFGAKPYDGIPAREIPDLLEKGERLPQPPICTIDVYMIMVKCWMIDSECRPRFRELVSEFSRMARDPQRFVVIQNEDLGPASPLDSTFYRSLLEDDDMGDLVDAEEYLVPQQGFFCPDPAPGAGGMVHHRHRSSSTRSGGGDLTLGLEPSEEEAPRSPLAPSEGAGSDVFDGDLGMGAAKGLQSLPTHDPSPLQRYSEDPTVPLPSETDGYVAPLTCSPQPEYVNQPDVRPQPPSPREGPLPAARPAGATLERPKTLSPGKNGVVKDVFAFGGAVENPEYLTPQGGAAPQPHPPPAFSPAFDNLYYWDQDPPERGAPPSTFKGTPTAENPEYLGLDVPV
Assay [1] deals with ErbB2 with Exon 20 YVMA insertion (HER2-YVMA) (Homo sapiens (Human), UniProt P04626, INS775YVMA). Description: Cellular Phosphorylation Assay, Assay 4 (constitutive ErbB2 phosphorylation, NIH 3T3 cells). The assay is classed as cell-based.
Chain of ErbB2 with Exon 20 YVMA insertion (HER2-YVMA) (P04626 other isoform, or with tags, fused parts or gaps ins YVMA behind 775): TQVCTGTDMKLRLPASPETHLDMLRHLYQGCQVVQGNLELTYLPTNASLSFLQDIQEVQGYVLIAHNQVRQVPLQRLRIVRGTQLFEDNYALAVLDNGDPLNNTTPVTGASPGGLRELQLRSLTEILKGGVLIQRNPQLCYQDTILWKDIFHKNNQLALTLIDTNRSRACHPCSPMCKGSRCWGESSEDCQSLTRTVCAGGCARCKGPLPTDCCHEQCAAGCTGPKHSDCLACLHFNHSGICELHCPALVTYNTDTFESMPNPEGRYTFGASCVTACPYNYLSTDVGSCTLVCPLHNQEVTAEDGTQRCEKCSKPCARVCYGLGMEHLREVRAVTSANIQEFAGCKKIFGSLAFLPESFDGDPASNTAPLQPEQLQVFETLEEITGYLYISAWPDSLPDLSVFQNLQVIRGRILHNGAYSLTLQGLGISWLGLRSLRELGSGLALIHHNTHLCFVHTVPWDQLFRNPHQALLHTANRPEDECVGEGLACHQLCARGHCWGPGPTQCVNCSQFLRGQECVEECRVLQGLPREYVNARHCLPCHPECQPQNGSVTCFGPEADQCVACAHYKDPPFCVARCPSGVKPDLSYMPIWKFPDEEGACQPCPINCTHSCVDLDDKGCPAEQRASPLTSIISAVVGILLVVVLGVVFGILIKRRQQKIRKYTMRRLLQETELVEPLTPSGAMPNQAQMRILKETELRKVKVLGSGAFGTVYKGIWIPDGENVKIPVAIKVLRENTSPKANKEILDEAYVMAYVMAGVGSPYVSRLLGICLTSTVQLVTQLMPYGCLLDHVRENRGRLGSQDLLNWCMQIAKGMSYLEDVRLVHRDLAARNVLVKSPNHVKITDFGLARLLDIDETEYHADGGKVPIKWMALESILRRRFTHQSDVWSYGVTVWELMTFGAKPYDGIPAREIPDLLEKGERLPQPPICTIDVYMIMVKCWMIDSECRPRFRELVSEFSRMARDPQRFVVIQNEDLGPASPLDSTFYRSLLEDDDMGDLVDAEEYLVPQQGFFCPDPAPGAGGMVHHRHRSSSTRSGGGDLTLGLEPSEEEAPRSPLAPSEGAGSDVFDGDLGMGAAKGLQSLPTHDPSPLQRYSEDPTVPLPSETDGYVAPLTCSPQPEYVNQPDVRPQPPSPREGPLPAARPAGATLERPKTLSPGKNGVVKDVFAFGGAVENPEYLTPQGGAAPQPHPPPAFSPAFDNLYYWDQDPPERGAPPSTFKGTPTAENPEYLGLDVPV
The target in another assay is EGFR wild type (EGFR WT) (Homo sapiens (Human), UniProt P00533). Description: Cellular Phosphorylation Assay, Assay 5 (EGF-stimulated EGFR phosphorylation, NIH 3T3 cells). In kind it is cell-based.
Chain of EGFR wild type (EGFR WT) (P00533 25-1210): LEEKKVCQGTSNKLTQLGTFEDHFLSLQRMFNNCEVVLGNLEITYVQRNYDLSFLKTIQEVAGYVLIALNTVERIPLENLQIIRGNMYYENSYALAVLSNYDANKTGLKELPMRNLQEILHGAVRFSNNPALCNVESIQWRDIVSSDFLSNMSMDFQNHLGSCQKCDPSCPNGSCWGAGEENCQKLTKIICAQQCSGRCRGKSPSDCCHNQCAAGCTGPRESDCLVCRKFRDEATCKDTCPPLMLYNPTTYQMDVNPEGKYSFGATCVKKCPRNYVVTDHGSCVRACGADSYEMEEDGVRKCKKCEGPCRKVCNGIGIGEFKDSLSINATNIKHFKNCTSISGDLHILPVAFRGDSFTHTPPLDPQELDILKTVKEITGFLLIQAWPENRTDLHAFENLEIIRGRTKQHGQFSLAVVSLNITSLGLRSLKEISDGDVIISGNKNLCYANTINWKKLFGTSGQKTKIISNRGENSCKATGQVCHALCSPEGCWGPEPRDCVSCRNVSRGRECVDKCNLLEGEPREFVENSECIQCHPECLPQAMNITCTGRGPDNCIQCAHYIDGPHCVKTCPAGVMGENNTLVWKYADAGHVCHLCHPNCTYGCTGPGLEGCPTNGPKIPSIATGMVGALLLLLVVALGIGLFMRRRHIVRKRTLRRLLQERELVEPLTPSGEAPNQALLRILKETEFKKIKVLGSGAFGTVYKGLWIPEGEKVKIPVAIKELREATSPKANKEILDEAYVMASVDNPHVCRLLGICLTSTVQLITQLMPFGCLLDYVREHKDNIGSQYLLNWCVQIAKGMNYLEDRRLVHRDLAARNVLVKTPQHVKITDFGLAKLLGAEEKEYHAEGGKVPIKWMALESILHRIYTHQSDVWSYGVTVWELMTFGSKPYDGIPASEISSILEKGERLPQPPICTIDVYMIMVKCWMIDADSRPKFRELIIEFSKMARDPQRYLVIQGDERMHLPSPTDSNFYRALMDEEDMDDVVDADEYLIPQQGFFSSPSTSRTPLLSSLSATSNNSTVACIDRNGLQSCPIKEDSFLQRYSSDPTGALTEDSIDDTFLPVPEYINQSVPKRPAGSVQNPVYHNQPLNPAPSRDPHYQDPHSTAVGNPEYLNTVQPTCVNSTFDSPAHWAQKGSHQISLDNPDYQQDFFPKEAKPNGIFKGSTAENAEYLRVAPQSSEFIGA
The mark [2] stands for this setting: cellular ErbB2 YVMA phosphorylation.
Where [3] appears, read: cellular EGFR WT phosphorylation, EGF-stimulated.
Setting [4] is: EGF-stimulated EGFR WT phosphorylation.

The IC50 is the point on the concentration scale where inhibition reaches its midpoint.

Chain of EGFR (P00533 25-1210): as above

With `C=CC(=O)N1C[C@@H]2CC[C@H]1CN2c1ccc2ncnc(Nc3ccc(Oc4ccn5ncnc5c4)c(C)c3F)c2n1` [Example 331], the IC50 on EGFR (EGFR enzyme assay) worked out at 48.8 nM; against ErbB2 WT (ErbB2 WT enzyme assay), 4.7 nM; in assay [1] (setting [2]), 3.2 nM; against EGFR wild type (EGFR WT) (setting [3]), 0.079 µM.
Take `C=CC(=O)N1CCN(c2ccc3ncnc(Nc4ccc(Oc5ccn6ncnc6c5)c(Cl)c4F)c3n2)CC1C(F)F` (stereo not shown) [Example 366]: the half-inhibitory concentration (IC50) came to 68.3 nM against EGFR (EGFR enzyme assay), 7.3 nM on ErbB2 WT (ErbB2 WT enzyme assay), 5.3 nM in assay [1] (setting [2]) and 0.0356 µM against EGFR wild type (EGFR WT) (setting [3]).
`C=CC(=O)N1CC[C@H]2C[C@@H]1CN2c1ccc2ncnc(Nc3ccc(Oc4cnc5c(c4)ncn5C)c(C)c3F)c2n1` [Example 237, 1-((1R,5S)-6-(4-((2-fluoro-3-methyl-4-((3-methyl-3H-imidazo[4,5-b]pyridin-6-yl)oxy)phenyl)amino)pyrido[3,2-d]pyrimidin-6-yl)-2,6-diazabicyclo[3.2.1]octan-2-yl)prop-2-en-1-one]: the IC50 against EGFR (EGFR enzyme) was not below 10000 nM; on ErbB2 WT (ErbB2 WT enzyme), 1330 nM; in assay [1] (ErbB2 YVMA phosphorylation) it was 256 nM; on EGFR wild type (EGFR WT) (setting [4]), not below 5 µM.
Regarding `C=CC(=O)N1C[C@H]2CC[C@@H]1C[C@H]2c1ccc2ncnc(Nc3ccc(Oc4cnc5c(c4)ncn5C)c(C)c3F)c2n1` [Example 423], the IC50 is 2550 nM at EGFR (EGFR enzyme assay), 125 nM on ErbB2 WT (ErbB2 WT enzyme assay), 70.8 nM in assay [1] (setting [2]) and not below 5 µM against EGFR wild type (EGFR WT) (setting [3]).
As for `C=CC(=O)N1C[C@@H]2CC[C@H]1CN2c1ccc2ncnc(Nc3cc(Cl)c(Oc4ccn5ncnc5c4)cc3F)c2n1` [Example 321], the IC50 is 86.4 nM on EGFR (EGFR enzyme assay), 4.6 nM at ErbB2 WT (ErbB2 WT enzyme assay), 3.8 nM in assay [1] (setting [2]) and 0.124 µM on EGFR wild type (EGFR WT) (setting [3]).
For `C=CC(=O)N1CCCCC(c2ccc3ncnc(Nc4ccc(Oc5ccn6ncnc6c5)c(C)c4F)c3n2)C1` (stereo not shown) [Example 377], the IC50 against EGFR (EGFR enzyme assay) was 187 nM; against ErbB2 WT (ErbB2 WT enzyme assay), 13 nM; in assay [1] (setting [2]), 16.3 nM; at EGFR wild type (EGFR WT) (setting [3]), 0.426 µM.
For `C=CC(=O)N1C[C@H]2C[C@H](c3ccc4ncnc(Nc5cc(C)c(Oc6ccn7ncnc7c6)cc5F)c4n3)C[C@H]2C1` [Example 201, 1-((3aR,5s,6aS)-5-(4-((4-([1,2,4]triazolo[1,5-a]pyridin-7-yloxy)-2-fluoro-5-methylphenyl)amino)pyrido[3,2-d]pyrimidin-6-yl)hexahydrocyclopenta[c]pyrrol-2(1H)-yl)prop-2-en-1-one], the IC50 against EGFR (EGFR enzyme) was 9450 nM; at ErbB2 WT (ErbB2 WT enzyme), 68.1 nM; in assay [1] (ErbB2 YVMA phosphorylation), 213 nM; at EGFR wild type (EGFR WT) (setting [4]), not below 5 µM.
As for `C=CC(=O)N1C[C@H]2CC[C@@H]1CN2c1ccc2ncnc(Nc3cc(Cl)c(Oc4ccn5ncnc5c4)cc3F)c2n1` [Example 330], the IC50 is not below 10000 nM against EGFR (EGFR enzyme assay), 239 nM against ErbB2 WT (ErbB2 WT enzyme assay), 241 nM in assay [1] (setting [2]) and not below 5 µM against EGFR wild type (EGFR WT) (setting [3]).
In the case of `C=CC(=O)N1[C@H](C)CN(c2ccc3ncnc(Nc4ccc(Oc5ccc6c(c5)ncn6C)c(C)c4F)c3n2)C[C@@H]1C` [Example 115, 1-((2S,6R)-4-(4-((2-fluoro-3-methyl-4-((1-methyl-1H-benzo[d]imidazol-5-yl)oxy)phenyl)amino)pyrido[3,2-d]pyrimidin-6-yl)-2,6-dimethylpiperazin-1-yl)prop-2-en-1-one], the IC50 on EGFR (EGFR enzyme) is not below 10000 nM; at ErbB2 WT (ErbB2 WT enzyme), 55.4 nM; in assay [1] (ErbB2 YVMA phosphorylation), 82.8 nM; against EGFR wild type (EGFR WT) (setting [4]) it was not below 5 µM.
Take `C=CC(=O)N1CCN(c2ccc3ncnc(Nc4ccc(Oc5ccn6ncnc6c5)cc4C(F)(F)F)c3n2)CC1(C)C` [Example 448]: the IC50 at EGFR (EGFR enzyme assay) was not below 10000 nM; against ErbB2 WT (ErbB2 WT enzyme assay), 370 nM; in assay [1] (setting [2]), 87.6 nM; at EGFR wild type (EGFR WT) (setting [3]), 3.44 µM.
`C=CC(=O)N1C[C@H]2CC[C@@H]1[C@H](c1ccc3ncnc(Nc4cc(C)c(Oc5cnc6c(c5)ncn6C)cc4F)c3n1)C2` [Example 424]: the IC50 is not below 10000 nM at EGFR (EGFR enzyme assay), 405 nM on ErbB2 WT (ErbB2 WT enzyme assay), 44.8 nM in assay [1] (setting [2]) and not below 5 µM on EGFR wild type (EGFR WT) (setting [3]).
Take `C=CC(=O)N1CCN(c2ccc3ncnc(Nc4ccc(Oc5cnc6c(c5)ncn6C)c(C)c4)c3n2)CC1(C)C` [Example 250]: the IC50 against EGFR (EGFR enzyme assay) was found to be 4120 nM; on ErbB2 WT (ErbB2 WT enzyme assay) it was 27.9 nM; in assay [1] (setting [2]) it was 9 nM; against EGFR wild type (EGFR WT) (setting [3]) it was 3.2 µM.
For the molecule `C=CC(=O)N1C[C@H]2CC[C@@H]1C[C@@H]2c1ccc2ncnc(Nc3ccc(Oc4ccn5ncnc5c4)c(C)c3F)c2n1` (single isomer, unassigned) [Example 234], the IC50 at EGFR (EGFR enzyme) is 960 nM; against ErbB2 WT (ErbB2 WT enzyme), 37.3 nM; in assay [1] (ErbB2 YVMA phosphorylation), 33 nM; against EGFR wild type (EGFR WT) (setting [4]), 0.875 µM.
`C=CC(=O)N1CCN(c2ccc3ncnc(Nc4ccc(Oc5ccn6ncnc6c5)c(Cl)c4F)c3n2)C[C@H]1C` [Example 91, (R)-1-(4-(4-((4-([1,2,4]triazolo[1,5-a]pyridin-7-yloxy)-3-chloro-2-fluorophenyl)amino)pyrido[3,2-d]pyrimidin-6-yl)-2-methylpiperazin-1-yl)prop-2-en-1-one]: the concentration for half-maximal inhibition (IC50) on EGFR (EGFR enzyme) was found to be 358 nM; against ErbB2 WT (ErbB2 WT enzyme), 9.8 nM; in assay [1] (ErbB2 YVMA phosphorylation), 2.8 nM; against EGFR wild type (EGFR WT) (setting [4]), 0.0568 µM.
Consider `C=CC(=O)N1CCN(c2ccc3ncnc(Nc4cc(C)c(Oc5ccn6ncnc6c5)cc4F)c3n2)C[C@@H]1C1CC1` [Example 284], for which the IC50 on EGFR (EGFR enzyme assay) was not below 10000 nM; against ErbB2 WT (ErbB2 WT enzyme assay), 24.9 nM; in assay [1] (setting [2]), 67.9 nM; against EGFR wild type (EGFR WT) (setting [3]) it was not below 5 µM.
As for `C=CC(=O)N1C[C@@H](c2ccc3ncnc(Nc4cc(C)c(Oc5ccn6ncnc6c5)cc4F)c3n2)C[C@@H]1C` (mixture of isomers) [Example 384], the IC50 at EGFR (EGFR enzyme assay) is 3000 nM; against ErbB2 WT (ErbB2 WT enzyme assay), 101 nM; in assay [1] (setting [2]), 58.3 nM; on EGFR wild type (EGFR WT) (setting [3]) it was not below 5 µM.
In the case of `CC#CC(=O)N1[C@@H]2CC[C@H]1C[C@@H](c1ccc3ncnc(Nc4cc(C)c(Oc5ccn6ncnc6c5)cc4F)c3n1)C2` [Example 208, 1-((1R,3r,5S)-3-(4-((4-([1,2,4]triazolo[1,5-a]pyridin-7-yloxy)-2-fluoro-5-methylphenyl)amino)pyrido[3,2-d]pyrimidin-6-yl)-8-azabicyclo[3.2.1]octan-8-yl)but-2-yn-1-one], the IC50 was not below 10000 nM against EGFR (EGFR enzyme), 172 nM at ErbB2 WT (ErbB2 WT enzyme), 328 nM in assay [1] (ErbB2 YVMA phosphorylation) and not below 5 µM against EGFR wild type (EGFR WT) (setting [4]).
`C=CC(=O)N1CC[C@H](c2ccc3ncnc(Nc4ccc(Oc5cc(F)c6c(c5)ncn6C)c(C)c4)c3n2)CC1(C)C` (racemic) [Example 279]: the half-inhibitory concentration (IC50) against EGFR (EGFR enzyme assay) is not below 10000 nM; against ErbB2 WT (ErbB2 WT enzyme assay) it was 145 nM; in assay [1] (setting [2]), 62.1 nM; against EGFR wild type (EGFR WT) (setting [3]), not below 5 µM.
Turning to `C=CC(=O)N1[C@@H]2CC[C@H]1[C@H](c1ccc3ncnc(Nc4cc(C)c(Oc5cnc6c(c5)ncn6C)cc4F)c3n1)C2` [Example 417], the IC50 against EGFR (EGFR enzyme assay) was not below 10000 nM; at ErbB2 WT (ErbB2 WT enzyme assay), 215 nM; in assay [1] (setting [2]), 51.6 nM; against EGFR wild type (EGFR WT) (setting [3]), not below 5 µM.
Consider `C=CC(=O)N1CC(c2ccc3ncnc(Nc4ccc(Oc5ccc6c(c5)ncn6C)c(C)c4F)c3n2)CCC12CC2` (stereo not shown) [Example 197, 1-(6-(4-((2-fluoro-3-methyl-4-((1-methyl-1H-benzo[d]imidazol-5-yl)oxy)phenyl)amino)pyrido[3,2-d]pyrimidin-6-yl)-4-azaspiro[2.5]octan-4-yl)prop-2-en-1-one], for which the concentration for half-maximal inhibition (IC50) amounted to 650 nM at EGFR (EGFR enzyme), 21.1 nM against ErbB2 WT (ErbB2 WT enzyme), 35.2 nM in assay [1] (ErbB2 YVMA phosphorylation) and 0.853 µM at EGFR wild type (EGFR WT) (setting [4]).
For `C=CC(=O)N1C[C@H](c2ccc3ncnc(Nc4ccc(Oc5ccn6ncnc6c5)c(C)c4F)c3n2)C[C@H]1C` (mixture of isomers) [Example 387], the IC50 against EGFR (EGFR enzyme assay) turned out to be 2200 nM; against ErbB2 WT (ErbB2 WT enzyme assay), 52.1 nM; in assay [1] (setting [2]), 60.8 nM; against EGFR wild type (EGFR WT) (setting [3]), 4.28 µM.
As for `C=CC(=O)N1CCC(Oc2ccc3ncnc(Nc4ccc(Oc5cnn6c(C)cnc6c5)c(C)c4F)c3n2)CC1` [Example 55, 1-(4-((4-((2-fluoro-3-methyl-4-((3-methylimidazo[1,2-b]pyridazin-7-yl)oxy)phenyl)amino)pyrido[3,2-d]pyrimidin-6-yl)oxy)piperidin-1-yl)prop-2-en-1-one], the half-inhibitory concentration (IC50) is not below 10000 nM against EGFR (EGFR enzyme), 2040 nM against ErbB2 WT (ErbB2 WT enzyme), 50.8 nM in assay [1] (ErbB2 YVMA phosphorylation) and 0.93 µM at EGFR wild type (EGFR WT) (setting [4]).
In the case of `C=CC(=O)N1CCCC(c2ccc3ncnc(Nc4ccc(Oc5ccn6ncnc6c5)c(C)c4F)c3n2)C1` (stereo not shown) [Example 198, 1-(3-(4-((4-([1,2,4]triazolo[1,5-a]pyridin-7-yloxy)-2-fluoro-3-methylphenyl)amino)pyrido[3,2-d]pyrimidin-6-yl)piperidin-1-yl)prop-2-en-1-one], the IC50 on EGFR (EGFR enzyme) amounted to 342 nM; on ErbB2 WT (ErbB2 WT enzyme), 24.2 nM; in assay [1] (ErbB2 YVMA phosphorylation) it was 17 nM; against EGFR wild type (EGFR WT) (setting [4]), 0.809 µM.
Consider `C=CC(=O)N1CCN(c2ccc3ncnc(Nc4cc(Cl)c(Oc5ccc6c(c5)ncn6C)cc4F)c3n2)CC1(C)C` [Example 76, 1-(4-(4-((5-chloro-2-fluoro-4-((1-methyl-1H-benzo[d]imidazol-5-yl)oxy)phenyl)amino)pyrido[3,2-d]pyrimidin-6-yl)-2,2-dimethylpiperazin-1-yl)prop-2-en-1-one], for which the half-inhibitory concentration (IC50) on EGFR (EGFR enzyme) was not below 10000 nM; against ErbB2 WT (ErbB2 WT enzyme) it was 33.4 nM; in assay [1] (ErbB2 YVMA phosphorylation), 17.1 nM; against EGFR wild type (EGFR WT) (setting [4]), not below 5 µM.
In the case of `C=CC(=O)N1CCCN(c2nc3c(Nc4ccc(Oc5ccn6ncnc6c5)c(C)c4F)ncnc3cc2OC)CC1` [Example 150, 1-(4-(4-((4-([1,2,4]triazolo[1,5-a]pyridin-7-yloxy)-2-fluoro-3-methylphenyl)amino)-7-methoxypyrido[3,2-d]pyrimidin-6-yl)-1,4-diazepan-1-yl)prop-2-en-1-one], the IC50 against EGFR (EGFR enzyme) was 1550 nM; at ErbB2 WT (ErbB2 WT enzyme), 16.6 nM; in assay [1] (ErbB2 YVMA phosphorylation), 47 nM; against EGFR wild type (EGFR WT) (setting [4]), not below 5 µM.
